# Results published in patent publication US7070778B2, “Therapeutical combination against cancer” (Laboratoire Goemar SA, priority 2003, dated 2006).
# Tested on: BT-474 human breast carcinoma
# Assay: Effect on the tumor growth: BT-474 human breast carcinoma xenograft in nude mice
# Assay type: in vivo
# Conditions: for Average daily weight of the tumor: Group 6: Paclitaxel 16 mg/kg i.p. once a day for 5 days
# Method: Female nude mice (nulnu) between 5 and 6 weeks of age weighing approximately 20 g were obtained from Harlan, Inc. (Madison, Wis.). The BT-474 human breast carcinoma cell line was obtained from the American Type Culture Collection (ATCC). BT-474 was established by E. Lasfargues and W. G. Coutinho from a solid carcinoma of the breast obtained from a patient (2). Twenty-one-day release 17β-estradiol pellets at 0.25 mg (Innovative Research of America) were implanted subcutaneously into each mouse. The following day, animals were implanted s.c. by trocar with fragments of human tumor carcinomas harvested from s.c. growing tumors in nude mice hosts. When the tumors were approximately 40 mg in size (24 days following inoculation), the animals were pair-matched into treatment and control groups. All of the groups contained 9 mice. All of the animals were ear-tagged and followed individually throughout the experiment.
# The mice of each group were administered intra peritoneally with 2 ml of the following composition:
# Group 1: (control) sterile H2O, 5 times a day
# Mice were weighed twice weekly, and tumor measurements were obtained using calipers twice weekly, starting on Day 1. These tumor measurements were converted to mg tumor weight by the standard formula, (W^2×L)/2 (2). The experiment was terminated when the control group tumor size reached an average of 500 mg. Upon termination (Day 46), the mice were weighed, sacrificed and their tumors were excised. The tumors were weighed, and the mean tumor weight per group was calculated.
# With this agent, the final weight of a given tumor was subtracted from its own weight at the start of treatment on Day 1. This difference was divided by the initial tumor weight to give the % regression. A mean % tumor regression was calculated from data from mice in a group that experienced tumor regressions.
compound,measurement,setting,value
CC(=O)O[C@H]1C(=O)[C@@]2(C)[C@H]([C@H](OC(=O)c3ccccc3)[C@]3(O)C[C@H](OC(=O)[C@H](O)[C@@H](NC(=O)c4ccccc4)c4ccccc4)C(C)=C1C3(C)C)[C@]1(OC(C)=O)CO[C@@H]1C[C@@H]2O [Paclitaxel],tumor regression (in words),Paclitaxel 16 mg/kg i.p. once a day for 5 days,caused tumor regression
same,Average daily weight of the tumor,day 5,3906 mg
same,Average daily weight of the tumor,day 9,54.2 mg
same,Average daily weight of the tumor,day 16,77.3 mg
same,Average daily weight of the tumor,day 19,79.4 mg
same,Average daily weight of the tumor,day 23,108.0 mg
same,Average daily weight of the tumor,day 26,123.8 mg
same,Average daily weight of the tumor,day 29,149.5 mg
same,Average daily weight of the tumor,day 32,188.8 mg
same,Average daily weight of the tumor,day 36,220.3 mg
same,Average daily weight of the tumor,day 39,244.8 mg
same,Average daily weight of the tumor,day 43,299.6 mg
same,Average daily weight of the tumor,day 46,376.3 mg
